# Data reported in patent publication US11446287B2, “Compounds and methods for EP300 or CBP modulation and indications therefor” (Opna Immuno-Oncology SA, priority 2019, dated 2022).
# Target: T1, Recombinant human BRD4 containing dual bromodomains (BRD4-BD12 (1-477)) (Homo sapiens, UniProt O60885)
# T1 construct: Recombinant human BRD4 containing dual bromodomains (BRD4-BD12 (1-477)); made in house; host or cells: E. coli BL21-CodonPlus (DE3), modified pET vector
# Test: BRD4 Alphascreen binding assay
# Experimental: BRD4 Alphascreen Binding Assay
# Binding of compounds of Formula (I) with BRD4 was assessed using Alphascreen binding assay. The inhibition of the interaction between BRD4 and its acetylated target protein was measured quantitatively using recombinant BRD4 protein, an acetylated Histone 4 peptide, and AlphaScreen™ technology. In absence of inhibition of the BRD4 protein bound to AlphaScreen™ nickel chelate acceptor beads can interact with the acetylated Histone 4 peptide which was immobilized by the AlphaScreen™ Streptavidin coated beads. This interaction brings donor and acceptor beads in proximity. The close proximity allows the singlet oxygen produced by laser excitation of the donor beads to reach the acceptor beads and generate a luminescence signal. BRD4 inhibitors result in a decrease in the proximity signal through an inhibition of the BRD4—acetylated peptide interaction.
# Recombinant human BRD4 containing dual bromodomains (BRD4-BD12 (1-477)) was prepared and purified as described in protein expression and purification session. The peptide was human Histone H41-21K5AcK8AcK12AcK16Ac-Biotin (Anaspec CA, USA).
# Protocol for BRD4 assay: All components are prepared in buffer composed of 50 mM HEPES pH 7.5, 50 mM NaCl, 0.01% BSA, 0.01% Triton X-100, 2 mM DTT. Test compounds and DMSO vehicle are diluted 1:50 in buffer and a 4 μL volume was transferred to an Alphaplate. 5.5 μL of Bromodomain protein and 5.5 μL of peptide are added to wells containing 4 μL of various concentrations of test compounds of Formula (I) or DMSO vehicle in an Alphaplate (PerkinElmer GA, USA) and incubated for 1 hour at room temperature. 5 μL donor and acceptor bead mixture was then added with final concentrations of 7.5 μg/ml. 30 minutes after bead addition, Alpha signal was read on the Envision spectrometer (λEx 680 nm, λEm 520-620 nm). Final concentrations of bromodomain proteins and peptide are as shown below.
# All data were normalized to the mean of 16 high and 16 low control wells on each plate. A four parameter curve fit of the following formula was then applied: Y=A+((B−A)/(1+((C/x)^D))) Where ‘A’ is the minimum, ‘B’ is the maximum, ‘C’ is the IC50 and ‘D’ is the Hill slope. Protein Expression and Purification
# Recombinant human BRD4 containing dual bromodomains (BRD4-BD12 (1-477)) was expressed in E. coli cells (in a modified pET vector) with an N-terminal six-His tag and purified using a combination of both IMAC (Ni-affinity) and size exclusion chromatography steps.
# Recombinant BRD4 was expressed using the E. coli strain BL21-CodonPlus (DE3) (Agilent Technologies CA, USA). Cells were grown in Terrific Broth (TB) media to an OD600 of 2.0 at 37° C. at which temperature was reduced to 18° C., protein was induced with 0.1 mM isopropyl-β-D-thiogalactopyranoside (“IPTG”) for 12-18 hours and harvested by centrifugation at 8000×g for 20 minutes. Cells were re-suspended in 40 mM Tris-HCl pH 8.0, 0.5 M NaCl, 25 mM Imidazole, 5% glycerol, 1/200 vol. Protease Inhibitor Cocktail Set III (Calbiochem), 5 mM beta-mercaptoethanol (“BME”), 0.5 mg/mL Lysozyme, and 0.5 mg/mL DNaseI, incubated on ice for 30 minutes and lysed with a cell disruptor (MicroFluidics MA, USA). The lysate was clarified by centrifugation at 20,000×g for 2 hours. The protein was captured with Ni-NTA resin (Life Technologies, USA). Contaminating proteins were washed off with 40 mM Tris-HCl pH 8.0, 0.5 M NaCl, 25 mM Imidazole, 5% glycerol, and 5 mM BME. Following 3× wash steps, protein was eluted step wise into wash buffer containing 50, 100, 150, 500 mM Imidazole. The protein was further purified using Gel Filtration column 16/60 Superdex 200 (GE Biosciences NJ, USA) in 10 mM HEPES pH 8.0, 150 mM NaCl, and 5 mM DTT. Glycerol was added to a final concentration of 12% and the protein was aliquoted and flash-frozen in liquid Nitrogen.
row,Structure (SMILES),IC50
1,"Cc1ccc(S(=O)(=O)n2cc(-c3ccc(C(=O)O)cc3)c3cc(-c4c(C)noc4C)cnc32)cc1 [P-0006, 4-(5-(3,5-dimethylisoxazol-4-yl)-1-tosyl-1H-pyrrolo[2,3-b]pyridin-3-yl)benzoic acid]",8 to 1000 µM
2,"Cc1noc(C)c1-c1cnc2c(c1)c(-c1ccc(C(=O)O)cc1)cn2C(c1ccccn1)C1CC1 (stereo not shown) [P-0007, 4-(1-(cyclopropyl(pyridin-2-yl)methyl)-5-(3,5-dimethylisoxazol-4-yl)-1H-pyrrolo[2,3-b]pyridin-3-yl)benzoic acid]",8 to 1000 µM
3,"Cc1noc(C)c1-c1cnc2c(c1)c(-c1ccc(C(=O)O)cc1)cn2C(c1ccccn1)C1CCC1 (stereo not shown) [P-0008, 4-(1-(cyclobutyl(pyridin-2-yl)methyl)-5-(3,5-dimethylisoxazol-4-yl)-1H-pyrrolo[2,3-b]pyridin-3-yl)benzoic acid]",8 to 1000 µM
4,"Cc1noc(C)c1-c1cnc2c(CC3CCC3)cn(-c3ccc(C(=O)O)cn3)c2c1 [P-0009, 6-(3-(cyclobutylmethyl)-6-(3,5-dimethylisoxazol-4-yl)-1H-pyrrolo[3,2-b]pyridin-1-yl)nicotinic acid]",8 to 1000 µM
5,"Cc1noc(C)c1-c1cnc2c(CC3CC3)cn(-c3ccc(C(=O)O)cn3)c2c1 [P-0010, 6-(3-(cyclopropylmethyl)-6-(3,5-dimethylisoxazol-4-yl)-1H-pyrrolo[3,2-b]pyridin-1-yl)nicotinic acid]",8 to 1000 µM
6,"Cc1noc(C)c1-c1cnc2c(Cc3ccccn3)cn(-c3ccc(C(=O)O)cn3)c2c1 [P-0011, 6-(6-(3,5-dimethylisoxazol-4-yl)-3-(pyridin-2-ylmethyl)-1H-pyrrolo[3,2-b]pyridin-1-yl)nicotinic acid]",8 to 1000 µM
7,"Cc1noc(C)c1-c1cnc2c(c1)c(-c1ccc(C(=O)O)cc1)cn2C(c1ccccn1)c1ccccn1 [P-0012, 4-(1-(di(pyridin-2-yl)methyl)-5-(3,5-dimethylisoxazol-4-yl)-1H-pyrrolo[2,3-b]pyridin-3-yl)benzoic acid]",8 to 1000 µM
8,"Cc1noc(C)c1-c1cnc2c(c1)c(-c1ccc(C(=O)O)cc1F)cn2[C@@H](C)c1ccccn1 [P-0097, (S)-4-(5-(3,5-dimethylisoxazol-4-yl)-1-(1-(pyridin-2-yl)ethyl)-1H-pyrrolo[2,3-b]pyridin-3-yl)-3-fluorobenzoic acid]",8 to 1000 µM
9,"COc1ccc(C(=O)O)cc1-n1cc(CC2CCC2)c2ncc(-c3c(C)noc3C)cc21 [P-0098, 3-(3-(cyclobutylmethyl)-6-(3,5-dimethylisoxazol-4-yl)-1H-pyrrolo[3,2-b]pyridin-1-yl)-4-methoxybenzoic acid]",1 to 8 µM
10,"Cc1noc(C)c1-c1cnc2c(C(=O)c3cccc(OC(F)F)c3)cn(-c3ccnc(C(=O)O)c3)c2c1 [P-0099, 4-(3-(3-(difluoromethoxy)benzoyl)-6-(3,5-dimethylisoxazol-4-yl)-1H-pyrrolo[3,2-b]pyridin-1-yl)picolinic acid]",1 to 8 µM
11,"Cc1noc(C)c1-c1cnc2c(Cc3cccc(OC(F)F)c3)cn(-c3ccnc(C(=O)O)c3)c2c1 [P-0100, 4-(3-(3-(difluoromethoxy)benzyl)-6-(3,5-dimethylisoxazol-4-yl)-1H-pyrrolo[3,2-b]pyridin-1-yl)picolinic acid]",1 to 8 µM
12,"Cc1noc(C)c1-c1cnc2c(c1)c(-c1cccc(C(=O)O)c1)cn2CC1CC(F)(F)C1 [P-0101, 3-(1-((3,3-difluorocyclobutyl)methyl)-5-(3,5-dimethylisoxazol-4-yl)-1H-pyrrolo[2,3-b]pyridin-3-yl)benzoic acid]",8 to 1000 µM
13,"Cc1noc(C)c1-c1cnc2c(c1)c(-c1cccc(C(=O)O)c1)cn2CC1(C)COC1 [P-0102, 3-(5-(3,5-dimethylisoxazol-4-yl)-1-((3-methyloxetan-3-yl)methyl)-1H-pyrrolo[2,3-b]pyridin-3-yl)benzoic acid]",8 to 1000 µM
14,"COc1cc(C(=O)O)cc(OC)c1-c1cn([C@@H](C)c2ccccn2)c2ncc(-c3c(C)noc3C)cc12 [P-0103, (S)-4-(5-(3,5-dimethylisoxazol-4-yl)-1-(1-(pyridin-2-yl)ethyl)-1H-pyrrolo[2,3-b]pyridin-3-yl)-3,5-dimethoxybenzoic acid]",8 to 1000 µM
15,"Cc1noc(C)c1-c1cnc2c(CC3CCC3)cn(-c3ccc(C#N)c(C(=O)O)c3)c2c1 [P-0104, 2-cyano-5-(3-(cyclobutylmethyl)-6-(3,5-dimethylisoxazol-4-yl)-1H-pyrrolo[3,2-b]pyridin-1-yl)benzoic acid]",8 to 1000 µM
16,"Cc1noc(C)c1-c1cnc2c(CC3CCC3)cn(-c3ccc(C(=O)O)c(C#N)c3)c2c1 [P-0105, 2-cyano-4-(3-(cyclobutylmethyl)-6-(3,5-dimethylisoxazol-4-yl)-1H-pyrrolo[3,2-b]pyridin-1-yl)benzoic acid]",8 to 1000 µM
17,"Cc1noc(C)c1-c1cnc2c(c1)c(-c1cncc(C(=O)O)n1)cn2[C@@H](C)c1ccccn1 [P-0106, (S)-6-(5-(3,5-dimethylisoxazol-4-yl)-1-(1-(pyridin-2-yl)ethyl)-1H-pyrrolo[2,3-b]pyridin-3-yl)pyrazine-2-carboxylic acid]",8 to 1000 µM
18,"Cc1noc(C)c1-c1cnc2c(c1)c(-c1nccc(C(=O)O)n1)cn2[C@@H](C)c1ccccn1 [P-0107, (S)-2-(5-(3,5-dimethylisoxazol-4-yl)-1-(1-(pyridin-2-yl)ethyl)-1H-pyrrolo[2,3-b]pyridin-3-yl)pyrimidine-4-carboxylic acid]",8 to 1000 µM
19,"CCOc1cc(C(=O)O)cc(F)c1-n1cc(CC2CCC2)c2ncc(-c3c(C)noc3C)cc21 [P-0108, 4-(3-(cyclobutylmethyl)-6-(3,5-dimethylisoxazol-4-yl)-1H-pyrrolo[3,2-b]pyridin-1-yl)-3-ethoxy-5-fluorobenzoic acid]",1 to 8 µM
20,"CCOc1cc(C(=O)O)cc(OCC)c1-n1cc(CC2CCC2)c2ncc(-c3c(C)noc3C)cc21 [P-0109, 4-(3-(cyclobutylmethyl)-6-(3,5-dimethylisoxazol-4-yl)-1H-pyrrolo[3,2-b]pyridin-1-yl)-3,5-diethoxybenzoic acid]",1 to 8 µM
21,"Cc1noc(C)c1-c1cnc2c(CC3CCC3)cn(-c3ccc(C(=O)O)c4ccoc34)c2c1 [P-0110, 7-(3-(cyclobutylmethyl)-6-(3,5-dimethylisoxazol-4-yl)-1H-pyrrolo[3,2-b]pyridin-1-yl)benzofuran-4-carboxylic acid]",1 to 8 µM
22,"Cc1noc(C)c1-c1cnc2c(CC3CCC3)cn(-c3c(OC(C)C)cc(C(=O)O)cc3OC(C)C)c2c1 [P-0111, 4-(3-(cyclobutylmethyl)-6-(3,5-dimethylisoxazol-4-yl)-1H-pyrrolo[3,2-b]pyridin-1-yl)-3,5-diisopropoxybenzoic acid]",8 to 1000 µM
23,"Cc1noc(C)c1-c1cnc2c(c1)c(-c1ccc(C(=O)O)cc1OC(C)C)cn2[C@@H](C)c1ccccn1 [P-0112, (S)-4-(5-(3,5-dimethylisoxazol-4-yl)-1-(1-(pyridin-2-yl)ethyl)-1H-pyrrolo[2,3-b]pyridin-3-yl)-3-isopropoxybenzoic acid]",8 to 1000 µM
24,"CCCOc1cc(C(=O)O)ccc1-c1cn([C@@H](C)c2ccccn2)c2ncc(-c3c(C)noc3C)cc12 [P-0113, (S)-4-(5-(3,5-dimethylisoxazol-4-yl)-1-(1-(pyridin-2-yl)ethyl)-1H-pyrrolo[2,3-b]pyridin-3-yl)-3-propoxybenzoic acid]",8 to 1000 µM
25,"CCOc1cc(C(=O)O)ccc1-c1cn([C@@H](C)c2ccccn2)c2ncc(-c3c(C)noc3C)cc12 [P-0114, (S)-4-(5-(3,5-dimethylisoxazol-4-yl)-1-(1-(pyridin-2-yl)ethyl)-1H-pyrrolo[2,3-b]pyridin-3-yl)-3-ethoxybenzoic acid]",8 to 1000 µM
